These results are taken from patent publication US12123060B2, “Method for identifying targets for precision cancer therapy” (Tampere University Foundation sr, priority 2021, dated 2024).

Assay type in all cases: cell-based, human
In assay [1] the test system is L1 ORF1 and ORF2 mRNA in VCaP cells. Kind of assay: qPCR of L1 ORF1 and ORF2 mRNA. The conditions noted are these: for increase in ORF1 and ORF2 expression: 5-day treatment, carboplatin 5 μM or ENZ 10 μM, FIG. 3B. The procedure: Carboplatin or enzalutamide dissolved in DMSO and culture medium without FBS was added after a 24-hour initial incubation period. To control cells DMSO diluted in culture medium was added to a final concentration of 0.02%. LNCaP prostate cancer cells were transfected with L1 plasmid or positive and negative control plasmids and treated with carboplatin (5 μM) or ENZ (10 μM) the day after transfection, and cells were monitored for five days.
(§1) The isolation of RNA from cell lines was conducted using TriPure Isolation Reagent (Roche) following the manufacturer's protocol. The concentration of the RNA samples was measured using NanoDrop™ One/OneC Microvolume UV-Vis Spectrophotometer, followed by dilution of the samples to 1 μg/μl. The conversion of 1 μg of RNA to cDNA was done using Transcriptor First Strand cDNA Synthesis Kit (Roche) according to the manufacturer's instructions. The RT-PCR run was performed using LightCycler™ 480 SYBR Green I Master (Roche) and The LightCycler® 480 Real-Time PCR System (Roche) with 96-multiwell format. To allow separate analysis of ORF1 and ORF2, two sets of primer pairs were designed to target the L1RP-ORF1 (ORF1 mRNA thereafter), L1RP-ORF2 (ORF2 mRNA thereafter) and FANCI (Table 2). Each run included two biological and two technical replicates per treatment with fold change calculated based on the obtained Ct-values. Normalization was done against GAPDH values measured (Table 2).

The test system of assay [2] is L1 activity in LNCaP prostate cancer cells. Kind of assay: L1-EGFP retrotransposition reporter assay. The conditions noted are these: carboplatin 5 μM or ENZ 10 μM, 5 days, FIG. 3A. The procedure: FIG. 3. […] (A) The effects of carboplatin (5 μM) or enzalutamide (ENZ, 10 μM) on L1 activity in LNCaP prostate cancer cells analyzed using a retrotransposition L1-EGFP reporter assay and IncuCyte S3 imaging equipped with a green fluorescence channel. Representative IncuCyte cell images are shown for untreated, ENZ, and carboplatin exposed LNCaP cells with green channel only (L1-EGFP) and phase contrast. The control plasmids used included two negative controls (L1Neg-EGFP and L1Mut-EGFP) and a positive control plasmid (L1Pos-EGFP). […] See also FIG. 8. (B) The effects of carboplatin or ENZ on ORF1 and ORF2 mRNA expression in LNCaP, VCaP, PC-3, and 22Rv1 prostate cancer cells. (C) L1 ORF1 and ORF2 mRNA levels from pre- and post-castration xenograft samples from LuCaP 77 and LuCaP 105 (23). […]
FIG. 8. […] (A) The effects of carboplatin (5 μM) or enzalutamide (ENZ, 10 μM) on L1 activity in LNCaP prostate cancer cells analyzed using a retrotransposition L1-EGFP reporter assay and IncuCyte S3 imaging system equipped with a green fluorescence channel. […]
Carboplatin or enzalutamide dissolved in DMSO and culture medium without FBS was added after a 24-hour initial incubation period. […] LNCaP prostate cancer cells were transfected with L1 plasmid or positive and negative control plasmids and treated with carboplatin (5 μM) or ENZ (10 μM) the day after transfection, and cells were monitored for five days. […]

Assay [3] concerns L1 ORF1 and ORF2 mRNA in LNCaP cells. Kind of assay: qPCR of L1 ORF1 and ORF2 mRNA. The conditions noted are these: for ORF1 and ORF2 mRNA expression compared to control treated cells: 5 days, alone or in combination, AZT 50 μM. The procedure:
Carboplatin or enzalutamide dissolved in DMSO and culture medium without FBS was added after a 24-hour initial incubation period. To control cells DMSO diluted in culture medium was added to a final concentration of 0.02%. […]
as §1

The subject of a further assay is LNCaP cells. Kind of assay: Cell proliferation assay (siRNA knockdown, cell confluence). The conditions noted are these: 10 μM carboplatin. The procedure:
For cell proliferation assays, cells were reverse transfected with 25 nM siRNAs against FANCI (Dharmacon, ON-TARGETplus SMARTpool, L-022320-01-0005) or Scr control (Dharmacon, non-targeting pool), using OPTI-MEM and Lipofectamine 2000 transfection reagent (Invitrogen) in four biological replicates in a 384-well plate. LNCaP cells were plated on the wells (1000 cells/well) in antibiotic free regular growth medium. After 48 h, vehicle control (DMSO) or Carboplatin dilutions were added into wells in appropriate concentrations diluted in FBS free medium and the cell confluence was monitored for five days using live-cell imaging (IncuCyte S3, Sartorius). Cell confluence was determined by automatic counting using IncuCyte S3 Image analysis tools. Cell confluence (confluence mask) on each time point was calculated based on phase-contrast imaging with a minimum area filter of 150 μm2, segmentation adjustment of 1.0, 100 μm2 cleanup and size adjust of −2 pixels. Confluence curves were compared for statistical differences between treatment conditions at each timepoint using t-test.

The next assay relates to L1 ORF1p in LNCaP cells. Kind of assay: Western blot of L1 ORF1 protein. The conditions noted are these: carboplatin alone, or carboplatin with further addition of AZT, FIG. 9D. On the procedure:
FIG. 9. Further validation of L1 activation and suppression. (A) L1 mRNA levels from pre- and post-castration samples from LuCaP 77 and LuCaP 105 (16). […] Asterisks indicate significant differences between treatment conditions based on t-test (*, p<0.05; **, p<0.01; ***, p<0.001).
Whole cell lysates were prepared using SDS sample buffer (66 mM Tris-HCl pH 6.8, 13% Glyserol, 2.1% SDS and 0.01% Bromophenol Blue) with protease inhibitor added (cOmplete™ Protease Inhibitor Cocktail, Roche).

In the case of `CNC(=O)c1ccc(N2C(=S)N(c3ccc(C#N)c(C(F)(F)F)c3)C(=O)C2(C)C)cc1F` [ENZ, enzalutamide], in assay [1], the “increase in ORF1 and ORF2 expression” value was found to be 5.5 fold. The “L1 retrotransposition (L1-EGFP reporter, green fluorescence)” value in assay [2] was “relative increase in L1-EGFP reporter, below statistical significance”. For the same compound, the “ORF1 and ORF2 mRNA induction” value in assay [3] (25-day incubation, ENZ alone or with AZT, FIG. 3D) turned out to be 8 fold. Moreover, the “ORF1 and ORF2 mRNA expression compared to control treated cells” value in assay [3] (FIG. 3D) is given as “no significant changes”.

Turning to `N.N.O=C([O-])C1(C(=O)[O-])CCC1.[Pt+2]` [carboplatin], the “increase in ORF1 and ORF2 expression” value in assay [1] was 7 fold; in assay [3] (5-day treatment, carboplatin 5 μM, FIG. 3B), “approximately 4 fold”. Also, the “ORF1 and ORF2 mRNA expression compared to control treated cells” value in assay [1] (5 days, alone or in combination, AZT 50 μM, FIG. 3D) is on record as roughly 9 fold; in assay [3] (FIG. 3D), “approximately 4 fold”. In the assay on LNCaP cells, the “proliferation of siFANCI LNCaP cells on carboplatin exposure” value is on record as “significantly decreased proliferation”. In addition, in the assay on L1 ORF1p in LNCaP cells, the “level of L1 ORF1p (Western blot)” value is “significantly increased”. The “L1 retrotransposition (L1-EGFP reporter, green fluorescence)” value in assay [2] is given as “L1 retrotransposition indicated by green fluorescence appeared”.
